We go through 1 compound from US20230172201A1, “Use of 4-Phenylbutyric Acid and/or 3-Phenylbutyric Acid and/or 2-Phenylbutyric Acid in Preventing and Treating Cryptogamic Diseases” (Institut National de Recherche Pour L'Agriculture, …, priority 2020, published 2023).

The structures appear in SMILES notation.

Assay [1] has as its system Cercospora beticola. As to the kind of experiment: Radial growth of the mycelium. Conditions: 528 h. The assay is classed as cell-based.
Assay [2] deals with Phytophthora capsici. As to the kind of experiment: Radial growth of the oomycete. It is filed as cell-based.
For assay [3], the system named is Botrytis cinerea (BMM strain). As to the kind of experiment: Protection of grapevine foliar disks against gray rot, B. cinerea spore inoculum with or without 4-PBA. Conditions: grapevine cv. Gamay foliar disks; 4-PBA 1 mM; 5·10^4 spores/mL; 3 days. It is filed as in vivo. The method, then:
Material and Methods. A commercial variety of grapevine (Vitis […], cultivar Gamay) was grown in a greenhouse for 6 weeks. […] The inoculum was prepared as mentioned above for the experiments carried out with A. thaliana. A volume of 6 μL was deposited on each disk. The infected disks were incubated as for the experiments carried out on foliar disks of tomato. The disease symptoms were photographed and quantified 3 days after infection from the distribution of the lesions as a function of their diameter and by measuring the largest diameter of the lesions. […] The results presented in FIG. 4 correspond to the mean values±standard deviation.

The test system of assay [4] is Phanerochaete chrysosporium. As to the kind of experiment: Radial growth of the mycelium. The assay is classed as cell-based.

What is called inhibition is the drop in the measured response relative to a control, in per cent. Low readings indicate little suppression, high ones strong suppression. In general, EC50 refers to the concentration at which the effect is half-maximal. The low end stands for an effect from little substance, the high end for a need for much substance. For `O=C(O)CCCc1ccccc1` [4-PBA, 4-Phenylbutyric acid], the inhibition at 1000 µM in assay [1] (1 mM 4-PBA, time 22 days) is 0%; in assay [2] (Phytophthora capsici, 216 h, 1 mM 4-PBA, time 9 days), 90%; in assay [4] (Phanerodontia chrysosporium, 96 h, 1 mM 4-PBA, time 4 days) it was 99%. The inhibition at 2000 µM is 13% in assay [1] (2 mM 4-PBA, time 22 days); 100% in assay [2] (Phytophthora capsici, 216 h, 2 mM 4-PBA, time 9 days); 100% in assay [4] (Phanerodontia chrysosporium, 96 h, 2 mM 4-PBA, time 4 days). Moreover, the inhibition at 5000 µM worked out at 67% in assay [1] (5 mM 4-PBA, time 22 days); 100% in assay [2] (Phytophthora capsici, 216 h, 5 mM 4-PBA, time 9 days); 100% in assay [4] (Phanerodontia chrysosporium, 96 h, 5 mM 4-PBA, time 4 days). This compound yielded an EC50 in assay [1] (time 22 days (day control colonized the whole Petri dish)) of 2810 µM. In addition, in assay [2] (2 and 5 mM), the “growth at higher concentrations” value is “complete absence of growth for 20 days”. Moreover, the “decrease in the average diameter of the lesions” value in assay [3] was about 75%. Besides, the “time for the fungus to overcome supplementation of the culture medium” value in assay [4] (4-PBA 1 mM) was found to be 14 days. For the same compound, the “development at higher concentrations” value in assay [4] (final concentrations of 2 and 5 mM) was “unable to develop”.
